US20210338767A1, “METHODS OF SELECTING TREATMENT FOR CXCR4-ASSOCIATED CANCER” (BioLineRx Ltd., priority 2018, published 2021)
Positions of bridges follow the written chain, without caps; N, C: chain ends. Non-standard residues stand in square brackets, D forms with d. *: point of attachment. Benzoyl(4-F) = O=C(c1ccc(F)cc1)*; Cit = NC(=O)NCCC[C@H](N)C(=O)O

How the values were obtained:
[1] = system: relapsed or refractory AML; assay: Phase 2a study of BL-8040 combined with high dose Ara-C (HiDAC) in relapsed/refractory AML: efficacy; type: in vivo, human
Text: Subjects were accrued in a conventional 3+3 design.
Follow-up period started after completion of Ara-C chemotherapy and continued for up to 6 weeks after initiation of salvage chemotherapy with Ara-C, i.e., up to Day 44. Subjects participating in the expansion phase were followed for up to 5 years after completion of the follow-up period. Subjects were contacted by telephone at approximately 3-month intervals (±1 month) after the end of the follow-up period to determine AML status and survival.

[2] = molecular target: T1, CXCR4 receptor (Homo sapiens, UniProt P61073); assay: Pharmacodynamic assessment: CXCR4 receptor occupancy prior and post BL-8040 treatment; type: in vivo
T1 construct: Fold change in level of occupied CXCR4 receptor prior and post treatment with low (0.5, 0.75 and 1 mg/kg) and high; endogenous in cells
Method: (§1) FIGS. 3A-D show BL-8040 Mediated CXCR4 Receptor Occupancy and Induce Mobilization and Differentiation of AML Blasts. (A) Fold change in level of occupied CXCR4 receptor prior and post treatment with low (0.5, 0.75 and 1 mg/kg) and high (1.25, 1.5 and 2 mg/kg) BL-8040 dose levels. (B) Fold change in AML blast counts pre and post BL-8040 and BL-8040+HiDAC treatments in responders and non-responders. (C) Fold change in the level of AML blasts in the BM following BL-8040 treatment (D) Change in levels of BM Granulocytes following 2 days of BL-8040 treatment.
Receptor occupancy is typically assessed using two monoclonal antibodies (mAbs) binding to two different epitopes of the CXCR4 antigen. […] It will be appreciated that receptor occupancy can also be determined by using an antibody which binds peptide-free CXCR4 prior to and post contacting with the peptide (e.g., 12G5, supra).
According to a specific embodiment, the receptor occupancy is determined as follows: Percent or number of CXCR4 expressing cells (e.g., using 12G5 Ab) post drug (e.g., SEQ ID NO: 1) treatment out of percent or number of CXCR4 expressing cells (e.g., using 12G5 Ab) prior to drug (e.g., SEQ ID NO: 1) treatment *100, such a calculation provides receptor occupancy per cell.

[3] = system: AML blasts; assay: Pharmacodynamic assessment: mobilization and differentiation of AML blasts (peripheral blood, bone marrow); type: in vivo, human
Method: as §1

[4] = system: malignant cells of hematopoietic origin including AML; conditions: cited from earlier work
[5] = all patients at all BL-8040 dose levels (N=42)
[6] = responding subjects at the 1.5 mg/kg dose (9/23 with CR/CRi)
[7] = responding subjects within the 1.5 mg/kg dose group
[8] = subjects receiving 1.5 mg/kg (N=23)
[9] = responding patients following BL-8040 treatment vs baseline, compared to non-responders

T1 sequence (P61073 whole entry): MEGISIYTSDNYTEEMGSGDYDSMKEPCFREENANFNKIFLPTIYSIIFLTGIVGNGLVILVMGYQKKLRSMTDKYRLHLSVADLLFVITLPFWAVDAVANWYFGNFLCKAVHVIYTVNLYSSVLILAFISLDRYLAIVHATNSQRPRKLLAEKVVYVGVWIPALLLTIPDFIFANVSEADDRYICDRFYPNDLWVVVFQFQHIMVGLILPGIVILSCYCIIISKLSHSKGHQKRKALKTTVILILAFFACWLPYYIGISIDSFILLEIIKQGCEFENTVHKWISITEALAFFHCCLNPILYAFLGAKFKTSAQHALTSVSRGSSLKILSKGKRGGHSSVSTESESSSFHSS

## 4F-benzoyl-Arg-Arg-Nal-Cys-Tyr-Cit-Lys-DLys-Pro-Tyr-Arg-Cit-Cys-Arg-NH2 ({Benzoyl(4-F)}-RR[Nal]CY[Cit]K[dK]PYR[Cit]CR-NH2; disulfide 4-13 (inferred)) [BL-8040]
[1]; [5]
  1-year survival rate: 37.2%
  2-years survival rate: 20%
  3-years survival rate: 16%
[1]; all patients at all BL-8040 dose levels (N=42), with HiDAC
  median overall survival (mOS): 9.1 months
[1]; expansion group that received 1.5 mg/kg BL-8040 (9/23), with HiDAC
  composite CR rate (CR and CRi): 39%
[1]; refractory patients (9/19), with HiDAC
  composite CR rate (CR and CRi): 47%
[1]; relapsed patients (3/23), with HiDAC
  composite CR rate (CR and CRi): 13%
[1]; [6]
  1-year survival rate: 66.7%
  2-years survival rate: 44.4%
  3-years survival rate: 44.4%
  median overall survival (mOS): 21.8 months
[1]; [7]
  EFS at 1 year: 55.6%
  EFS at 2 years: 22.2%
  EFS at 3 years: 22.2%
  median duration of response (mDOR): 17.4 months
[1]; [8]
  1-year survival rate: 38.1%
  2-year survival rate: 23.8%
  3-year survival rate: 23.8%
  median overall survival (mOS): 10.7 months
[2]; high BL-8040 dose levels (1.25, 1.5 and 2 mg/kg)
  CXCR4 receptor occupancy: demonstrated CXCR4 receptor occupancy
[2]; low BL-8040 dose levels (0.5, 0.75 and 1 mg/kg)
  CXCR4 receptor occupancy: insignificant changes in receptor occupancy
[3]; responders vs non-responders relative to screening, following BL-8040 treatment
  levels of granulocytes in BM: Statistically significant increased levels of granulocytes
[3]; [9]
  leukemic blasts in BM: decreased numbers of leukemic blasts in BM
  mobilized leukemic blasts in peripheral blood: statistically significant increased numbers of mobilized leukemic blasts
[4]
  cytotoxicity toward malignant cells: CXCR4-dependent preferential cytotoxicity
